Source: patent publication US20170232083A1, “METHODS OF DIAGNOSIS AND TREATMENT OF CELIAC DISEASE IN CHILDREN” (priority 2014, published 2017)
Values joined by “and” are separate entries in the source; they are usually repeats but may differ in a detail not shown here. Equal entries are not always repeated. Non-standard residues stand in square brackets, D forms with d. pGlu = O=C1CC[C@@H](C(=O)O)N1

System: peripheral blood mononuclear cells obtained from children
Experiment: IFNγ ELISpot PBMC assay after oral wheat bread challenge (Examples 1-2)
Format: cell-based, human
Method: An oral wheat bread challenge was conducted in DQ2.5+ children and adolescents having Celiac disease. The age ranges were 3-5, 6-10 and 11-18 years of age. An ELISpot peripheral blood mononucleated cell (PBMC) assay was performed to measure the level of IFNγ released by the PBMCs after being contacted with peptide 1, peptide 2, peptide 3, or a combination thereof. The identities of peptides 1, 2, and 3 are shown below.
The values the rows starting from “Blank (SFU)” and ending at “Pept-1/2/3 (150)” are all spot forming unit (SFU) values. The values in the parentheses in the first column are the concentration of each peptide in micrograms that were added to the PBMCs (e.g., Pept-1 50=50 micrograms of Peptide 1, Pept-1/2/3 50=50 micrograms of each of Peptide 1, Peptide 2, and Peptide 3). Pept-1=Peptide 1, Pept-2=Peptide 2, Pept-3=Peptide 3, the amino acid identities of which are mentioned above. D-Gli=deamidated gliadin. WT-Gli=wild-type gliadin. D-Glut=deamidated gluten. WT-Glut=wild-type gluten.
IFNγ ELISpot responses in 9 older children (11-17 yo) and 6 younger children (3-10 yo) were stimulated by the mixture of peptides 1, 2, and 3 described in Example 1 (each peptide at a concentration of 25 ug/mL) or stimulated by deamidated gliadin (100 ug/mL) after 3-day wheat challenge (r2=0.8, p<0.0001). The ELISpot responses were similar using either the peptide mixture of the deamidated gliadin (FIG. 1).

EQPFPQPEQPFPWQP ([pGlu]QPFPQPEQPFPWQP-NH2; SMILES NC(=O)CC[C@H](NC(=O)[C@H](Cc1c[nH]c2ccccc12)NC(=O)[C@@H]1CCCN1C(=O)[C@H](Cc1ccccc1)NC(=O)[C@@H]1CCCN1C(=O)[C@H](CCC(N)=O)NC(=O)[C@H](CCC(=O)O)NC(=O)[C@@H]1CCCN1C(=O)[C@H](CCC(N)=O)NC(=O)[C@@H]1CCCN1C(=O)[C@H](Cc1ccccc1)NC(=O)[C@@H]1CCCN1C(=O)[C@H](CCC(N)=O)NC(=O)[C@@H]1CCC(=O)N1)C(=O)N1CCC[C@H]1C(N)=O) [Peptide 2]
most active peptides in gliadin for children: most active | SFU, IFNγ ELISpot (Subject A, 5.0 × 10^5 cells per well, 50 micrograms, listed as Pept-2): 4 SFU and 3 SFU | SFU, IFNγ ELISpot (Subject A, 5.0 × 10^5 cells per well, 100 micrograms, listed as Pept-2): 5 SFU and 3 SFU | SFU, IFNγ ELISpot (Subject B, 5.0 × 10^5 cells per well, 25 micrograms, listed as Pept-2): 4 SFU and 6 SFU | SFU, IFNγ ELISpot (Subject B, 5.0 × 10^5 cells per well, 50 micrograms, listed as Pept-2): 7 SFU and 8 SFU | SFU, IFNγ ELISpot (Subject C, 5.0 × 10^5 cells per well, 50 micrograms): 4 SFU | SFU, IFNγ ELISpot (Subject D, 4.0 × 10^5 cells per well, 25 micrograms, listed as Pept-2): 17 SFU and 30 SFU | SFU, IFNγ ELISpot (Subject D, 4.0 × 10^5 cells per well, 50 micrograms, listed as Pept-2): 29 SFU and 32 SFU | SFU, IFNγ ELISpot (Subject E, 5.0 × 10^5 cells per well, 25 micrograms, listed as Pept-2): 55 SFU and 45 SFU | SFU, IFNγ ELISpot (Subject E, 5.0 × 10^5 cells per well, 50 micrograms, listed as Pept-2): 45 SFU and 43 SFU | SFU, IFNγ ELISpot (Subject E, 5.0 × 10^5 cells per well, 100 micrograms, listed as Pept-2): 67 SFU and 44 SFU | SFU, IFNγ ELISpot (Subject F, 5.0 × 10^5 cells per well, 25 micrograms, listed as Pept-2): 44 SFU and 59 SFU | SFU, IFNγ ELISpot (Subject F, 5.0 × 10^5 cells per well, 50 micrograms, listed as Pept-2): 64 SFU and 105 SFU | SFU, IFNγ ELISpot (Subject F, 5.0 × 10^5 cells per well, 100 micrograms, listed as Pept-2): 41 SFU and 59 SFU | SFU, IFNγ ELISpot (Subject G, 4.0 × 10^5 cells per well, 25 micrograms): 7 SFU | SFU, IFNγ ELISpot (Subject G, 4.0 × 10^5 cells per well, 100 micrograms, listed as Pept-2): 5 SFU and 9 SFU | SFU, IFNγ ELISpot (Subject I, 5.0 × 10^5 cells per well, 25 micrograms): 7 SFU | SFU, IFNγ ELISpot (Subject I, 5.0 × 10^5 cells per well, 50 micrograms, listed as Pept-2): 5 SFU and 6 SFU | SFU, IFNγ ELISpot (Subject J, 5.0 × 10^5 cells per well, 25 micrograms, listed as Pept-2): 85 SFU and 98 SFU | SFU, IFNγ ELISpot (Subject J, 5.0 × 10^5 cells per well, 50 micrograms, listed as Pept-2): 107 SFU and 83 SFU | SFU, IFNγ ELISpot (Subject J, 5.0 × 10^5 cells per well, 100 micrograms, listed as Pept-2): 81 SFU and 90 SFU | SFU, IFNγ ELISpot (Subject K, 3.2 × 10^5 cells per well, 25 micrograms, listed as Pept-2): 17 SFU and 22 SFU | SFU, IFNγ ELISpot (Subject K, 3.2 × 10^5 cells per well, 50 micrograms, listed as Pept-2): 19 SFU and 18 SFU | SFU, IFNγ ELISpot (Subject K, 3.2 × 10^5 cells per well, 100 micrograms, listed as Pept-2): 23 SFU and 15 SFU | SFU, IFNγ ELISpot (Subject L, 3.5 × 10^5 cells per well, 25 micrograms, listed as Pept-2): 5 SFU and 4 SFU | SFU, IFNγ ELISpot (Subject L, 3.5 × 10^5 cells per well, 100 micrograms, listed as Pept-2): 2 SFU and 4 SFU | SFU, IFNγ ELISpot (Subject M, 2.3 × 10^5 cells per well, 25 micrograms, listed as Pept-2): 28 SFU and 27 SFU | SFU, IFNγ ELISpot (Subject M, 2.3 × 10^5 cells per well, 50 micrograms, listed as Pept-2): 26 SFU and 29 SFU | SFU, IFNγ ELISpot (Subject M, 2.3 × 10^5 cells per well, 100 micrograms, listed as Pept-2): 32 SFU and 24 SFU | SFU, IFNγ ELISpot (Subject N, 2.4 × 10^5 cells per well, 100 micrograms, listed as Pept-2): 4 SFU and 7 SFU | SFU, IFNγ ELISpot (Subject P, 3.0 × 10^5 cells per well, 0.5 micrograms, listed as Pept-2): 10 SFU and 8 SFU | SFU, IFNγ ELISpot (Subject P, 3.0 × 10^5 cells per well, 1 micrograms, listed as Pept-2): 18 SFU and 11 SFU | SFU, IFNγ ELISpot (Subject P, 3.0 × 10^5 cells per well, 5 micrograms, listed as Pept-2): 19 SFU and 15 SFU | SFU, IFNγ ELISpot (Subject Q, 3.0 × 10^5 cells per well, 0.5 micrograms, listed as Pept-2): 44 SFU and 51 SFU | SFU, IFNγ ELISpot (Subject Q, 3.0 × 10^5 cells per well, 1 micrograms, listed as Pept-2): 31 SFU and 41 SFU | SFU, IFNγ ELISpot (Subject Q, 3.0 × 10^5 cells per well, 2.5 micrograms, listed as Pept-2): 44 SFU and 51 SFU | SFU, IFNγ ELISpot (Subject Q, 3.0 × 10^5 cells per well, 5 micrograms, listed as Pept-2): 30 SFU | SFU, IFNγ ELISpot (Subject R, 3.0 × 10^5 cells per well, 0.1 micrograms, listed as Pept-2): 18 SFU and 20 SFU | SFU, IFNγ ELISpot (Subject R, 3.0 × 10^5 cells per well, 0.5 micrograms, listed as Pept-2): 16 SFU and 14 SFU | SFU, IFNγ ELISpot (Subject R, 3.0 × 10^5 cells per well, 1 micrograms, listed as Pept-2): 15 SFU and 11 SFU | SFU, IFNγ ELISpot (Subject R, 3.0 × 10^5 cells per well, 5 micrograms, listed as Pept-2): 16 SFU | SFU, IFNγ ELISpot (Subject S, 3.0 × 10^5 cells per well, 0.5 micrograms, listed as Pept-2): 2 SFU and 1 SFU | SFU, IFNγ ELISpot (Subject S, 3.0 × 10^5 cells per well, 1 micrograms, listed as Pept-2): 5 SFU and 3 SFU | SFU, IFNγ ELISpot (Subject S, 3.0 × 10^5 cells per well, 2.5 micrograms, listed as Pept-2): 2 SFU and 3 SFU | SFU, IFNγ ELISpot (Subject S, 3.0 × 10^5 cells per well, 5 micrograms, listed as Pept-2): 5 SFU | SFU, IFNγ ELISpot (Subject T, 3.0 × 10^5 cells per well, 0.1 micrograms, listed as Pept-2): 33 SFU and 47 SFU | SFU, IFNγ ELISpot (Subject T, 3.0 × 10^5 cells per well, 0.5 micrograms, listed as Pept-2): 34 SFU and 39 SFU | SFU, IFNγ ELISpot (Subject T, 3.0 × 10^5 cells per well, 1 micrograms, listed as Pept-2): 41 SFU and 51 SFU | SFU, IFNγ ELISpot (Subject T, 3.0 × 10^5 cells per well, 2.5 micrograms, listed as Pept-2): 49 SFU and 56 SFU | SFU, IFNγ ELISpot (Subject T, 3.0 × 10^5 cells per well, 5 micrograms, listed as Pept-2): 68 SFU | SFU, IFNγ ELISpot (Subject U, 3.0 × 10^5 cells per well, 0.1 micrograms, listed as Pept-2): 8 SFU and 6 SFU | SFU, IFNγ ELISpot (Subject U, 3.0 × 10^5 cells per well, 0.5 micrograms, listed as Pept-2): 8 SFU and 12 SFU | SFU, IFNγ ELISpot (Subject U, 3.0 × 10^5 cells per well, 1 micrograms, listed as Pept-2): 13 SFU and 15 SFU | SFU, IFNγ ELISpot (Subject U, 3.0 × 10^5 cells per well, 2.5 micrograms, listed as Pept-2): 26 SFU and 33 SFU | SFU, IFNγ ELISpot (Subject U, 3.0 × 10^5 cells per well, 5 micrograms, listed as Pept-2): 28 SFU | T cell response in PBMC samples from children after gluten challenge (general increase in SFU in each child, Tables 2-5): induce a T cell response
